pIC50: −log10 of the molar value. Where two headings read alike, the source gives them in different places. Positions of bridges follow the written chain, without caps; N, C: chain ends. Residues, ends and D or L forms follow the SMILES beside them.

The target of experiment [1] is T1, rat nAChR α3β2 (Rattus norvegicus, UniProt P04757+P12390).
T1 construct: expressed in transfected cells; host or cells: Xenopus oocytes injected with cRNA
The experiment can be described thus: cell-based. It is filed as cell-based.

Experiment [2] deals with T2, rat nAChR α2β4 (Rattus norvegicus, UniProt P12389+P12392).
T2 construct: expressed in transfected cells; host or cells: Xenopus oocytes injected with cRNA
T2 sequence (P12389 28-511 limits assumed): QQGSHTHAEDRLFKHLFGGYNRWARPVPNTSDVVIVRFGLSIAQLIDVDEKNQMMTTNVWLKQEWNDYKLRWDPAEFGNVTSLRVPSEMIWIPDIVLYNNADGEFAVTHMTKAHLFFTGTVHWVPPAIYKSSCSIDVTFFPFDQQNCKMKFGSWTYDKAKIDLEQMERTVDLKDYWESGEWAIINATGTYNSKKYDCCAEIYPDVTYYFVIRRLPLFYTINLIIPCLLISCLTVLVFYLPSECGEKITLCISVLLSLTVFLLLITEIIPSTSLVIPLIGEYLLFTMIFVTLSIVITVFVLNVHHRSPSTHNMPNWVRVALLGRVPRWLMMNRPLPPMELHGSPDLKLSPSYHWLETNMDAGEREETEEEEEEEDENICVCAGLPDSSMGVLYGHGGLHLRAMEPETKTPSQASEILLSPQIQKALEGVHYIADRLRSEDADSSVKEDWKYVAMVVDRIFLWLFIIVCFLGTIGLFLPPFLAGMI
T2 sequence (P12392 21-495 limits assumed): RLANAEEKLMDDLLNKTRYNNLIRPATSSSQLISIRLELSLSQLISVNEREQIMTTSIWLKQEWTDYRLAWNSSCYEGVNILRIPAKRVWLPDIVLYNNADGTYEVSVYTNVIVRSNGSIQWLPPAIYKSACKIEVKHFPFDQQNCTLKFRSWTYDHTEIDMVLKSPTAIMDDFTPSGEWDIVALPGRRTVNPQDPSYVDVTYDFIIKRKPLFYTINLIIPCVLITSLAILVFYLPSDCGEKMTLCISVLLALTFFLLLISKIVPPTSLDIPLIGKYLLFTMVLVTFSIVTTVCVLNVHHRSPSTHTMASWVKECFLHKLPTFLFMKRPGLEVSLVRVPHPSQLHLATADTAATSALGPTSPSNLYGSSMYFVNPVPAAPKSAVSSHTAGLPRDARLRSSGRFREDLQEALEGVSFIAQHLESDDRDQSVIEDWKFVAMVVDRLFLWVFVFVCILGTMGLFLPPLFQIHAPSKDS
Description: cell-based. The note with it: IC50 α2β4.

For experiment [3], the target named is T3, rat nAChR α4β2 (Rattus norvegicus, UniProt P09483+P12390).
T3 construct: expressed in transfected cells; host or cells: Xenopus oocytes injected with cRNA
T3 sequence (P09483 31-630 limits assumed): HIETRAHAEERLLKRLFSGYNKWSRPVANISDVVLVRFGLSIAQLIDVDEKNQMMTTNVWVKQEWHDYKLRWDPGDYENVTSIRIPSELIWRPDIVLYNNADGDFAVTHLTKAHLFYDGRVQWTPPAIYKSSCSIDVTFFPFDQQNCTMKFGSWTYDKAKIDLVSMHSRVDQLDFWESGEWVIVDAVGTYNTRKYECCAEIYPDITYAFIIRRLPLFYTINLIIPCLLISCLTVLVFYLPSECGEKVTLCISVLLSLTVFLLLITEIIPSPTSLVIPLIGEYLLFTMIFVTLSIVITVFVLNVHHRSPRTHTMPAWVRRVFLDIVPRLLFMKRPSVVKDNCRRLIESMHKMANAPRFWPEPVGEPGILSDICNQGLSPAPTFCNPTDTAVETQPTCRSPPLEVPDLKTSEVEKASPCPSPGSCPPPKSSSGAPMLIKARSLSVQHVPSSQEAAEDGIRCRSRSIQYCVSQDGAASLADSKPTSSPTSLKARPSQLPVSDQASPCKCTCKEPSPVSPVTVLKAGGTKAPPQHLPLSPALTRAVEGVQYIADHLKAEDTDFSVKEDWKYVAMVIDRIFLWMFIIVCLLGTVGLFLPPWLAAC
T3 sequence (P12390 25-500 limits assumed): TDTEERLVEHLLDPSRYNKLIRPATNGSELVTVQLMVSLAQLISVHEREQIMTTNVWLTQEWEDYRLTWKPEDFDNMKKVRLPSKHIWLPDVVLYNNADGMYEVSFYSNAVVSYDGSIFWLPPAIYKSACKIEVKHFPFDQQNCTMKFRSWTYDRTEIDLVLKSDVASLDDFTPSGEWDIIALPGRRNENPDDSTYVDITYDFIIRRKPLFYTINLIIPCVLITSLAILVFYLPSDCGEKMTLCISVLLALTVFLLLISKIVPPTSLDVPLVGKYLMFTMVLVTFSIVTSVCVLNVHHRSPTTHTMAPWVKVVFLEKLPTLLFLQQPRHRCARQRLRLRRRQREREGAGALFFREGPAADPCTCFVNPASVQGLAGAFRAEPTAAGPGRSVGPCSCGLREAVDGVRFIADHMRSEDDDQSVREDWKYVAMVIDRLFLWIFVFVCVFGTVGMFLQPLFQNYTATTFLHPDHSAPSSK
Description: cell-based.

Experiment [4] deals with T4, rat nAChR α9α10 (Rattus norvegicus, UniProt P43144+Q9JLB5).
T4 construct: expressed in transfected cells; host or cells: Xenopus oocytes injected with cRNA
T4 sequence (P43144 26-479 limits assumed): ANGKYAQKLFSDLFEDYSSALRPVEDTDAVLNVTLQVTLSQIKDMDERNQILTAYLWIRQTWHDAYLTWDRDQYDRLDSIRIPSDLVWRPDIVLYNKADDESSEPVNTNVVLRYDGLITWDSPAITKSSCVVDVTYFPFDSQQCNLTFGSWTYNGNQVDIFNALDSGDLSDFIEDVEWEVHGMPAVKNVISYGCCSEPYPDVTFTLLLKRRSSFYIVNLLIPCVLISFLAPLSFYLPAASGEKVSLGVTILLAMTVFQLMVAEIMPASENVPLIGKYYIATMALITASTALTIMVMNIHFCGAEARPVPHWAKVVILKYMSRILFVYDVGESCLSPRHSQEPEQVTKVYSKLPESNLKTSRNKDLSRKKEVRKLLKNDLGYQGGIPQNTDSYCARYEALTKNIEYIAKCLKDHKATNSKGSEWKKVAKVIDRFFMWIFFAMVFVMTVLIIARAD
T4 sequence (Q9JLB5 25-447 limits assumed): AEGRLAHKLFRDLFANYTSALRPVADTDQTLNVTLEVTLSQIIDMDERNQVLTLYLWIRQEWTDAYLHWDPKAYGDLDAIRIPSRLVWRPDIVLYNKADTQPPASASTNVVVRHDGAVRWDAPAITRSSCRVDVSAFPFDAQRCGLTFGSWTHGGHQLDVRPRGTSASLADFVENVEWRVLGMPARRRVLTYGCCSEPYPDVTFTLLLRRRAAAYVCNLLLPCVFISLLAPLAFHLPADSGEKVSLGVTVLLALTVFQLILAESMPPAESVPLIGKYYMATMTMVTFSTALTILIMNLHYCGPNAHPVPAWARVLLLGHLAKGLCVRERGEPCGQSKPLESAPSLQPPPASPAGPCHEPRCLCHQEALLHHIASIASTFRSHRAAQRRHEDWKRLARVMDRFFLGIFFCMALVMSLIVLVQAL
The experiment can be described thus: cell-based.

The target of experiment [5] is T5, rat nAChR α4β4 (Rattus norvegicus, UniProt P09483+P12392).
T5 construct: expressed in transfected cells; host or cells: Xenopus oocytes injected with cRNA
T5 sequence (P09483 31-630 limits assumed): as the sequence (P09483 31-630 limits assumed) above
T5 sequence (P12392 21-495 limits assumed): as the sequence (P12392 21-495 limits assumed) above
Description: cell-based.

Experiment [6] deals with T6, rat nAChR α3β4 (Rattus norvegicus, UniProt P04757+P12392).
T6 construct: expressed in transfected cells; host or cells: Xenopus oocytes injected with cRNA
T6 sequence (P04757 26-499 limits assumed): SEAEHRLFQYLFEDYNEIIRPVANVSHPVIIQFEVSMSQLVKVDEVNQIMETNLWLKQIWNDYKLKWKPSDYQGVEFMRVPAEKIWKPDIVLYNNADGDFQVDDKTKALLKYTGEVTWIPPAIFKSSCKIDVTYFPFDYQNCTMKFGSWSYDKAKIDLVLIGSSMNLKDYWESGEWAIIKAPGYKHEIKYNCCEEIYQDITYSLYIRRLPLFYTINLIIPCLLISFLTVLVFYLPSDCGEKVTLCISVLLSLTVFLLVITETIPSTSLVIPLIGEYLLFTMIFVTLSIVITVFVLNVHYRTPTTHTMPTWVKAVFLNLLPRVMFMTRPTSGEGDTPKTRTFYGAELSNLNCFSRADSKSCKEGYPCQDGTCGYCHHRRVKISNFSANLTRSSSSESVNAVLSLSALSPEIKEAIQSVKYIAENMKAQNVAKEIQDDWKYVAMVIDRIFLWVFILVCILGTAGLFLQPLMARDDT
T6 sequence (P12392 21-495 limits assumed): as the sequence (P12392 21-495 limits assumed) above
Description: cell-based.

Experiment [7] addresses T7, rat nAChR α2β2 (Rattus norvegicus, UniProt P12389+P12390).
T7 construct: expressed in transfected cells; host or cells: Xenopus oocytes injected with cRNA
Description: cell-based.

Experiment [8] has as its target T8, rat nAChR α7 (Rattus norvegicus, UniProt Q05941).
T8 construct: expressed in transfected cells; host or cells: Xenopus oocytes injected with cRNA
The experiment can be described thus: cell-based.

Experiment [9] deals with T9, rat nAChR α6/α3β2β3 (Rattus norvegicus, UniProt P04757+P12390+P12391+P43143).
T9 construct: expressed in transfected cells; host or cells: Xenopus oocytes injected with cRNA
The experiment can be described thus: cell-based.

In experiment [10] the target is T1, rat nAChR α3β2. Description: cell-based. The format is cell-based. This is another data set of the same source.
Experiment [11] deals with T1, rat nAChR α3β2. The note with it: cited from earlier work.

T1 sequence (P04757 26-499 limits assumed): as the sequence (P04757 26-499 limits assumed) above
T1 sequence (P12390 25-500 limits assumed): as the sequence (P12390 25-500 limits assumed) above
T7 sequence (P12389 28-511 limits assumed): as the sequence (P12389 28-511 limits assumed) above
T7 sequence (P12390 25-500 limits assumed): as the sequence (P12390 25-500 limits assumed) above
T8 sequence (Q05941 23-502 limits assumed): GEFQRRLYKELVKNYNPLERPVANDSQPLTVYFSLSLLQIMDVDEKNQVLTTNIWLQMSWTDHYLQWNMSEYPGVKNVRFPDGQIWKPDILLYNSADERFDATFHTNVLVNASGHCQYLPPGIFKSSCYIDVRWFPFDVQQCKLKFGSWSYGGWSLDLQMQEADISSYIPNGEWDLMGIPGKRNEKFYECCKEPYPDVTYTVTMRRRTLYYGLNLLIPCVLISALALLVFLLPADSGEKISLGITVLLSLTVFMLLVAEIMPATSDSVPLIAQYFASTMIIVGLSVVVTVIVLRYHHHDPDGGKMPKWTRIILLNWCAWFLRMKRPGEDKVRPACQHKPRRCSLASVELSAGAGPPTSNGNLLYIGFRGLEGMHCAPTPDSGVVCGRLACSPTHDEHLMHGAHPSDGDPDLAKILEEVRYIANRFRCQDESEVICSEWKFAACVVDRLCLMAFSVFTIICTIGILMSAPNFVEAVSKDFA

The pIC50 is the IC50 on a negative log10 scale, so that one unit is a factor of ten. For the molecule `CC(C)C[C@@H]1NC(=O)[C@H](CCC(=O)O)NC(=O)[C@@H]2CCCN2C(=O)[C@H](CC(N)=O)NC(=O)[C@H](CO)NC(=O)[C@H](C(C)C)NC(=O)[C@H](Cc2c[nH]cn2)NC(=O)[C@@H]2CSSC[C@H](NC(=O)[C@H](CCC(=O)O)NC(=O)[C@@H]3CCCN3)C(=O)N[C@@H](CSSC[C@@H](C(N)=O)NC1=O)C(=O)N[C@@H]([C@@H](C)O)C(=O)N[C@@H](Cc1c[nH]cn1)C(=O)N1CCC[C@H]1C(=O)N[C@@H](C)C(=O)N2` [Mr1.7[H13N]] (H-PECCTHPACHVSNPELC-NH2; disulfide 3-9, 4-17), the pIC50 was 6.27 in experiment [1]; less than 5.00 in [2]; less than 5.00 in [3]; 5.74 in experiment [4]; less than 5.00 in [5]; less than 5.00 in [6]. Besides, the pIC50 in experiment [7] is less than 5.00; in experiment [8], 5.62.

One may read the kon as a measure of how fast the partners come together. Higher therefore signals fast association. In general, koff refers to the rate constant with which the complex falls apart. A low value points to slow dissociation. For the molecule `CC(C)C[C@@H]1NC(=O)[C@H](CCC(=O)O)NC(=O)[C@@H]2CCCN2C(=O)[C@H](Cc2c[nH]cn2)NC(=O)[C@H](CO)NC(=O)[C@H](C(C)C)NC(=O)[C@H](Cc2c[nH]cn2)NC(=O)[C@@H]2CSSC[C@H](NC(=O)[C@H](CCC(=O)O)NC(=O)[C@@H]3CCCN3)C(=O)N[C@@H](CSSC[C@@H](C(N)=O)NC1=O)C(=O)N[C@@H]([C@@H](C)O)C(=O)N[C@@H](Cc1c[nH]cn1)C(=O)N1CCC[C@H]1C(=O)N[C@@H](C)C(=O)N2` [Mr1.7] (H-PECCTHPACHVSHPELC-NH2; disulfide 3-9, 4-17), the pIC50 in [2] is less than 5.00; in experiment [3], less than 5.00; in experiment [9], 6.55; in [4] it was 6.73; in experiment [5] it was less than 5.00; in experiment [6] it was less than 5.00. Also, the pIC50 in experiment [7] and in [8] was less than 5.00 each time. The same molecule gave a kon in experiment [10] of 91300 M⁻¹ s⁻¹. In [10] (SEM), the off-rate (koff) was 0.00312 s⁻¹.

Regarding Vc1.1, the pIC50 in experiment [11] is 5.26.
